Results taken from ChEMBL document CHEMBL3045223, “Synthesis, nematicidal and antimicrobial properties of Bis-[4-methoxy-3-[3-(4-fluorophenyl)-6-(4-methylphenyl)-2(aryl)-tetrahydro-2H-pyrazolo[3,4-d]thiazol-5-yl]phenyl]methanes” (2009).
Values after ≈ are worked out from the molar mass of the structure shown. Active and inactive are the calls of the source. The calls are words filed in the database; no cut-off is given here.

Legend:
Assay type in all cases: functional
Aspergillus fumigatus [1] = experiment: Antifungal activity against Aspergillus fumigatus HIC 6094 assessed as growth inhibition at 300 ug/disc at 37 degC for 48 hr; details: for zone of inhibition at 300 µg/disc: HIC 6094, 48 h, read-out: IZ
[2] = tested on: Trichophyton mentagrophytes; experiment: Antifungal activity against Trichophyton mentagrophytes IFO 40996 assessed as growth inhibition at 37 degC for 48 hr; details: IFO 40996, 48 h
Pseudomonas aeruginosa [3] = experiment: Antibacterial activity against Pseudomonas aeruginosa MTCC 741 assessed as inhibition zones at 300 ug/disk at 37 degC for 24 hr; details: MTCC 741, 24 h, read-out: IZ
[4] = tested on: Ditylenchus myceliophagus; experiment: Nematicidal activity against Ditylenchus myceliophagus assessed as immobility; details: read-out: LD50 (the source's name)
[5] = tested on: Chromobacterium violaceum; experiment: Antibacterial activity against Chromobacterium violaceum MTCC 2656 assessed as inhibition zones at 300 ug/disk at 37 degC for 24 hr; details: MTCC 2656, 24 h, read-out: IZ
[6] = tested on: Lysinibacillus sphaericus; experiment: Antibacterial activity against Lysinibacillus sphaericus MTCC 11 assessed as inhibition zones at 300 ug/disk at 37 degC for 24 hr; details: MTCC 11, 24 h, read-out: IZ
Staphylococcus aureus [7] = experiment: Antibacterial activity against Staphylococcus aureus MTCC 96 assessed as growth arrest at 37 degC for 24 hr; details: MTCC 96, 24 h
Candida albicans [8] = experiment: Antifungal activity against Candida albicans ATCC 10231 assessed as growth inhibition at 300 ug/disk at 37 degC for 48 hr; details: for zone of inhibition at 300 µg/disc: ATCC 10231, 48 h, read-out: IZ
Trichophyton rubrum [9] = experiment: Antifungal activity against Trichophyton rubrum IFO 9185 assessed as growth inhibition at 300 ug/disk at 37 degC for 48 hr; details: for zone of inhibition at 300 µg/disc: IFO 9185, 48 h, read-out: IZ
Caenorhabditis elegans = experiment: Nematicidal activity against Caenorhabditis elegans assessed as immobility; details: read-out: LD50 (the source's name)
[10] = tested on: Chromobacterium violaceum; experiment: Antibacterial activity against Chromobacterium violaceum MTCC 2656 assessed as growth arrest at 37 degC for 24 hr; details: MTCC 2656, 24 h
Bacillus subtilis [11] = experiment: Antibacterial activity against Bacillus subtilis MTCC 441 assessed as inhibition zones at 300 ug/disk at 37 degC for 24 hr; details: MTCC 441, 24 h, read-out: IZ
Trichophyton rubrum [12] = experiment: Antifungal activity against Trichophyton rubrum IFO 9185 assessed as growth inhibition at 37 degC for 48 hr; details: IFO 9185, 48 h
Pseudomonas aeruginosa [13] = experiment: Antibacterial activity against Pseudomonas aeruginosa MTCC 741 assessed as growth arrest at 37 degC for 24 hr; details: MTCC 741, 24 h
[14] = tested on: Lysinibacillus sphaericus; experiment: Antibacterial activity against Lysinibacillus sphaericus MTCC 11 assessed as growth arrest at 37 degC for 24 hr; details: MTCC 11, 24 h
Staphylococcus aureus [15] = experiment: Antibacterial activity against Staphylococcus aureus MTCC 96 assessed as inhibition zones at 300 ug/disc at 37 degC for 24 hr; details: MTCC 96, 24 h, read-out: IZ
Klebsiella aerogenes [16] = experiment: Antibacterial activity against Enterobacter aerogenes MTCC 39 assessed as growth arrest at 37 degC for 24 hr; details: MTCC 39, 24 h
[17] = tested on: Trichophyton mentagrophytes; experiment: Antifungal activity against Trichophyton mentagrophytes IFO 40996 assessed as growth inhibition at 300 ug/disc at 37 degC for 48 hr; details: for zone of inhibition at 300 µg/disc: IFO 40996, 48 h, read-out: IZ
Aspergillus fumigatus [18] = experiment: Antifungal activity against Aspergillus fumigatus HIC 6094 assessed as growth inhibition at 37 degC for 48 hr; details: HIC 6094, 48 h
Candida albicans [19] = experiment: Antifungal activity against Candida albicans ATCC 10231 assessed as growth inhibition at 37 degC for 48 hr
Klebsiella aerogenes [20] = experiment: Antibacterial activity against Enterobacter aerogenes MTCC 39 assessed as inhibition zones at 300 ug/disk at 37 degC for 24 hr; details: MTCC 39, 24 h, read-out: IZ
Bacillus subtilis [21] = experiment: Antibacterial activity against Bacillus subtilis MTCC 441 assessed as growth arrest at 37 degC for 24 hr; details: MTCC 441, 24 h

| Structure (SMILES) | MBC [2] | MIC [2] | zone of inhibition at 300 µg/disc (Pseudomonas aeruginosa [3]) | LC50 [4] | zone of inhibition at 300 µg/disc [5] | zone of inhibition at 300 µg/disc [6] | MBC (Staphylococcus aureus [7]) | MIC (Staphylococcus aureus [7]) | LC50 (Caenorhabditis elegans) | MBC [10] | MIC [10] | zone of inhibition at 300 µg/disc (Bacillus subtilis [11]) | MBC (Trichophyton rubrum [12]) | MIC (Trichophyton rubrum [12]) | MBC (Pseudomonas aeruginosa [13]) | MIC (Pseudomonas aeruginosa [13]) | MBC [14] | MIC [14] | zone of inhibition at 300 µg/disc (Staphylococcus aureus [15]) | MBC (Klebsiella aerogenes [16]) | further results |
| --- | --- | --- | --- | --- | --- | --- | --- | --- | --- | --- | --- | --- | --- | --- | --- | --- | --- | --- | --- | --- | --- |
| COc1ccc(Cc2ccc(OC)c(C3SC4C(=NN(c5ccccc5)C4c4ccc(F)cc4)N3c3ccc(C)cc3)c2)cc1C1SC2C(=NN(c3ccccc3)C2c2ccc(F)cc2)N1c1ccc(C)cc1 (stereo unspecified) | 25 µg/mL (≈ 24.9 µM) | 25 µg/mL (≈ 24.9 µM) | 18 mm | 850 µg/mL (≈ 847 µM) | 19 mm | 16 mm | 12.5 µg/mL (≈ 12.5 µM) | 12.5 µg/mL (≈ 12.5 µM) | 670 µg/mL (≈ 668 µM) | 25 µg/mL (≈ 24.9 µM) | 25 µg/mL (≈ 24.9 µM) | 14 mm | 50 µg/mL (≈ 49.8 µM) | 25 µg/mL (≈ 24.9 µM) | 50 µg/mL (≈ 49.8 µM) | 12.5 µg/mL (≈ 12.5 µM) | 50 µg/mL (≈ 49.8 µM) | 25 µg/mL (≈ 24.9 µM) | 27 mm | 25 µg/mL (≈ 24.9 µM) | zone of inhibition at 300 µg/disc (Aspergillus fumigatus [1]): 10 mm; zone of inhibition at 300 µg/disc (Candida albicans [8]): 11 mm; inhibition zone (IZ) (Trichophyton rubrum [9]): inactive; MIC (Klebsiella aerogenes [16]): 12.5 µg/mL (≈ 12.5 µM); zone of inhibition at 300 µg/disc [17]: 9 mm; MBC (Aspergillus fumigatus [18]): 25 µg/mL (≈ 24.9 µM); MIC (Aspergillus fumigatus [18]): 25 µg/mL (≈ 24.9 µM); MBC (Candida albicans [19]): inactive; MIC (Candida albicans [19]): inactive; zone of inhibition at 300 µg/disc (Klebsiella aerogenes [20]): 17 mm; MBC (Bacillus subtilis [21]): 25 µg/mL (≈ 24.9 µM); MIC (Bacillus subtilis [21]): 12.5 µg/mL (≈ 12.5 µM) |
| COc1ccc(Cc2ccc(OC)c(C3SC4C(=NN(C)C4c4ccc(F)cc4)N3c3ccc([N+](=O)[O-])cc3)c2)cc1C1SC2C(=NN(C)C2c2ccc(F)cc2)N1c1ccc([N+](=O)[O-])cc1 (stereo unspecified) | 25 µg/mL (≈ 26.6 µM) | 12.5 µg/mL (≈ 13.3 µM) | 12 mm | 180 µg/mL (≈ 191 µM) | 18 mm | 20 mm | 25 µg/mL (≈ 26.6 µM) | 12.5 µg/mL (≈ 13.3 µM) | 200 µg/mL (≈ 213 µM) | 12.5 µg/mL (≈ 13.3 µM) | 12.5 µg/mL (≈ 13.3 µM) | 16 mm | 25 µg/mL (≈ 26.6 µM) | 12.5 µg/mL (≈ 13.3 µM) | 12.5 µg/mL (≈ 13.3 µM) | 12.5 µg/mL (≈ 13.3 µM) | 25 µg/mL (≈ 26.6 µM) | 12.5 µg/mL (≈ 13.3 µM) | 21 mm | 25 µg/mL (≈ 26.6 µM) | zone of inhibition at 300 µg/disc (Aspergillus fumigatus [1]): 14 mm; zone of inhibition at 300 µg/disc (Candida albicans [8]): 21 mm; zone of inhibition at 300 µg/disc (Trichophyton rubrum [9]): 15 mm; MIC (Klebsiella aerogenes [16]): 12.5 µg/mL (≈ 13.3 µM); zone of inhibition at 300 µg/disc [17]: 14 mm; MBC (Aspergillus fumigatus [18]): 25 µg/mL (≈ 26.6 µM); MIC (Aspergillus fumigatus [18]): 12.5 µg/mL (≈ 13.3 µM); MBC (Candida albicans [19]; ATCC 10231, 48 h): 25 µg/mL (≈ 26.6 µM); MIC (Candida albicans [19]; ATCC 10231, 48 h): 12.5 µg/mL (≈ 13.3 µM); zone of inhibition at 300 µg/disc (Klebsiella aerogenes [20]): 19 mm; MBC (Bacillus subtilis [21]): 6.25 µg/mL (≈ 6.64 µM); MIC (Bacillus subtilis [21]): 6.25 µg/mL (≈ 6.64 µM) |
| COc1ccc(Cc2ccc(OC)c(C3SC4C(=NN(C(C)C)C4c4ccc(F)cc4)N3c3ccc([N+](=O)[O-])cc3)c2)cc1C1SC2C(=NN(C(C)C)C2c2ccc(F)cc2)N1c1ccc([N+](=O)[O-])cc1 (stereo unspecified) | 25 µg/mL (≈ 25.1 µM) | 12.5 µg/mL (≈ 12.5 µM) | 10 mm | 510 µg/mL (≈ 511 µM) | 15 mm | 13 mm | 50 µg/mL (≈ 50.1 µM) | 25 µg/mL (≈ 25.1 µM) | 600 µg/mL (≈ 602 µM) | 50 µg/mL (≈ 50.1 µM) | 25 µg/mL (≈ 25.1 µM) | 18 mm | 25 µg/mL (≈ 25.1 µM) | 12.5 µg/mL (≈ 12.5 µM) | 25 µg/mL (≈ 25.1 µM) | 25 µg/mL (≈ 25.1 µM) | 50 µg/mL (≈ 50.1 µM) | 50 µg/mL (≈ 50.1 µM) | 23 mm | 25 µg/mL (≈ 25.1 µM) | inhibition zone (IZ) (Aspergillus fumigatus [1]): inactive; inhibition zone (IZ) (Candida albicans [8]): inactive; zone of inhibition at 300 µg/disc (Trichophyton rubrum [9]): 9 mm; MIC (Klebsiella aerogenes [16]): 12.5 µg/mL (≈ 12.5 µM); inhibition zone (IZ) [17]: inactive; MBC (Aspergillus fumigatus [18]): 50 µg/mL (≈ 50.1 µM); MIC (Aspergillus fumigatus [18]): 25 µg/mL (≈ 25.1 µM); MBC (Candida albicans [19]; ATCC 10231, 48 h): 25 µg/mL (≈ 25.1 µM); MIC (Candida albicans [19]; ATCC 10231, 48 h): 25 µg/mL (≈ 25.1 µM); zone of inhibition at 300 µg/disc (Klebsiella aerogenes [20]): 17 mm; MBC (Bacillus subtilis [21]): 25 µg/mL (≈ 25.1 µM); MIC (Bacillus subtilis [21]): 25 µg/mL (≈ 25.1 µM) |
